Source: ChEMBL document CHEMBL5209579, “Flow cytometry transport assay for SLC2A4 using HEK293 JumpIN TRex SLC2A4 WT-OE cells” (2022)

Target: T1, Solute carrier family 2, facilitated glucose transporter member 4 (Homo sapiens, UniProt P14672)
T1 sequence (P14672 whole entry): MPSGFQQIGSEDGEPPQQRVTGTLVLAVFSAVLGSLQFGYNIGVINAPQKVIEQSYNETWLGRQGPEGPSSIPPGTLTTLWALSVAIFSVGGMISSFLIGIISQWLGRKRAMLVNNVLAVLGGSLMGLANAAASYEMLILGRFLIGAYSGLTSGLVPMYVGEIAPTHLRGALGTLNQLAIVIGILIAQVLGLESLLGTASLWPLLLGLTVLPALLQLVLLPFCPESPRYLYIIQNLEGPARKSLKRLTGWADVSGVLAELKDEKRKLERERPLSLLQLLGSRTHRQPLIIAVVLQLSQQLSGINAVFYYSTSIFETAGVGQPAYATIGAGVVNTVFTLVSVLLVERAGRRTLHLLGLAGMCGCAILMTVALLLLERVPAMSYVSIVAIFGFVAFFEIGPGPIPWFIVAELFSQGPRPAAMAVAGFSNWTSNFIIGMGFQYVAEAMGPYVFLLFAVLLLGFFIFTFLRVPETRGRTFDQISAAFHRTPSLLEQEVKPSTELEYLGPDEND
Test: Inhibition of the Glucose Transporter (GLUT4, SLC2A4) as assessed by a FRET based flow cytometry assay using a genetically-encoded biosensor for measuring free glucose (FLII12Pglu-700uDelta6) in HEK293 JumpIN TRex SLC2A4 WT-OE cells (PubChem AID: 1794828)
Assay type: functional, cell-based

EC50 [µM] | Structure (SMILES) | IC50 [µM]
 | Cc1c(NC(=O)c2cc(C(N)=O)nc3cc(F)ccc23)c(C(F)(F)F)nn1Cc1ccc(C#N)cc1 [BAY-876] | 5.5
860 | OC[C@H]1OC(O)[C@H](O)[C@@H](O)[C@@H]1O (stereo partly drawn) [DEXTROSE] | 
 | O=C(Oc1cccc(F)c1OC(=O)c1cccc(O)c1)c1cccc(O)c1 | 2.5
